Measurements published in PubChem BioAssay AID248 (DTP/NCI, 2004).
Several values for one entry are separate records, joined by “and”; a condition that tells them apart may be missing. Equal values may be shown once. Inconclusive results and toxic doses are left out. Rule as the data show it: active = T/C of 150% or more; inactive = T/C below 125%.

Tested on: L1210 leukemia ip in BDF1 mice, survival T/C
Test: NCI In Vivo Anticancer Drug Screen. Data for tumor model L1210 Leukemia (intraperitoneal) in B6D2F1 (BDF1) mice
Settings: endpoint: mean survival time, higher = longer survival
How it was run: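 In this screen, tumor-bearing mice given compound are compared to those given vehicle, and their survival values are reported as a treated-to-control quotient.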

[1] = dose: 100.0 mg/kg/injection, schedule: Q01DX009 (ip), vehicle: saline
[2] = dose: 200.0 mg/kg/injection, schedule: Q01DX009 (ip), vehicle: saline
[3] = dose: 400.0 mg/kg/injection, schedule: Q01DX009 (ip), vehicle: saline
[4] = dose: 400.0 mg/kg/injection, schedule: Q01DX001 (ip), vehicle: carboxymethylcellulose (CMC)
[5] = dose: 100.0 mg/kg/injection, schedule: Q01DX001 (ip), vehicle: carboxymethylcellulose (CMC)
[6] = dose: 200.0 mg/kg/injection, schedule: Q01DX001 (ip), vehicle: carboxymethylcellulose (CMC)
[7] = dose: 100.0 mg/kg/injection, schedule: Q01DX001 (ip), vehicle: saline
[8] = dose: 200.0 mg/kg/injection, schedule: Q01DX001 (ip), vehicle: saline
[9] = dose: 400.0 mg/kg/injection, schedule: Q01DX001 (ip), vehicle: saline
[10] = dose: 100.0 mg/kg/injection, schedule: Q04DX003 (ip), vehicle: saline with Tween-80
[11] = dose: 200.0 mg/kg/injection, schedule: Q04DX003 (ip), vehicle: saline with Tween-80
[12] = dose: 400.0 mg/kg/injection, schedule: Q04DX003 (ip), vehicle: saline with Tween-80
[13] = dose: 100.0 mg/kg/injection, schedule: Q04DX003 (ip), vehicle: saline
[14] = dose: 100.0 mg/kg/injection, schedule: Q01DX001 (ip), vehicle: Klucel (hydroxypropylcellulose) (HPC)
[15] = dose: 200.0 mg/kg/injection, schedule: Q01DX001 (ip), vehicle: Klucel (hydroxypropylcellulose) (HPC)

Measured: T/C

CC(=O)NC(C(C)=O)C(C)=O.CC(=O)NC(C(C)=O)C(C)=O.[Cu]
inactive: dose: 12.0 mg/kg/injection, schedule: Q01DX001 (ip), vehicle: saline 90 % of control | dose: 25.0 mg/kg/injection, schedule: Q01DX001 (ip), vehicle: saline 88 % of control

CSC1=NCCN1
inactive: [1] 104 % of control | [2] 100 % of control | [3] 104 % of control

COC(=O)C1(C)CCCC2c3cc4c(cc3CCC21)C(=O)CC(C)O4 (stereo not given)
inactive: [4] 86 % of control

CCc1ccc(N=Nc2ccc(CC)cc2)cc1
inactive: [5] 98 % of control | [6] 106 % of control | [4] 101 % of control

Cc1cc(N=Nc2ccccc2)c2cccnc2c1N
inactive: dose: 50.0 mg/kg/injection, schedule: Q04DX003 (ip), vehicle: DMSO 91 % of control | dose: 100.0 mg/kg/injection, schedule: Q04DX003 (ip), vehicle: DMSO 97 % of control

Cc1c(Cl)cccc1NC(=O)COc1ccc(Cl)cc1Cl
inactive: dose: 100.0 mg/kg/injection, schedule: Q01DX009 (ip), vehicle: saline with Tween-80 88 % of control | dose: 200.0 mg/kg/injection, schedule: Q01DX009 (ip), vehicle: saline with Tween-80 93 % of control | dose: 400.0 mg/kg/injection, schedule: Q01DX009 (ip), vehicle: saline with Tween-80 98 % of control

Cc1nc(Cl)ncc1N
inactive: [7] 100 % of control | [8] 98 % of control | [9] 98 % of control

CCCCCCCCCCCCCCCCCC(=O)Nc1ccc(O)cc1
inactive: dose: 100.0 mg/kg/injection, schedule: Q01DX009 (ip), vehicle: gum acacia 87 % of control | dose: 100.0 mg/kg/injection, schedule: Q04DX003 (ip), vehicle: gum acacia 88 % of control | dose: 200.0 mg/kg/injection, schedule: Q01DX009 (ip), vehicle: gum acacia 90 % of control | dose: 200.0 mg/kg/injection, schedule: Q04DX003 (ip), vehicle: gum acacia 88 % of control | dose: 400.0 mg/kg/injection, schedule: Q01DX009 (ip), vehicle: gum acacia 90 % of control | dose: 400.0 mg/kg/injection, schedule: Q04DX003 (ip), vehicle: gum acacia 90 % of control

N#CCCP(CCC#N)CCCCCCP(CCC#N)CCC#N
inactive: dose: 25.0 mg/kg/injection, schedule: Q04DX003 (ip), vehicle: saline with Tween-80 97 % of control | dose: 50.0 mg/kg/injection, schedule: Q04DX003 (ip), vehicle: saline with Tween-80 90 % of control | [10] 96 % of control and 90 % of control

COC(OC)c1[nH]c(=S)[nH]c(=O)c1Cc1ccc(-c2ccccc2)cc1
inactive: [10] 101 % of control | [11] 100 % of control | [12] 95 % of control

CC(=O)Nc1ccccc1C(=NC1CCCC1)C(=O)NC1CCCC1
inactive: dose: 3.12 mg/kg/injection, schedule: Q01DX009 (ip), vehicle: Klucel (hydroxypropylcellulose) (HPC) 97 % of control | dose: 6.25 mg/kg/injection, schedule: Q01DX009 (ip), vehicle: Klucel (hydroxypropylcellulose) (HPC) 94 % of control | dose: 12.5 mg/kg/injection, schedule: Q01DX009 (ip), vehicle: Klucel (hydroxypropylcellulose) (HPC) 89 % of control | dose: 400.0 mg/kg/injection, schedule: Q01DX009 (ip), vehicle: Klucel (hydroxypropylcellulose) (HPC) 95 % of control

CCOC(=O)CNCc1cccc(Br)c1
inactive: dose: 50.0 mg/kg/injection, schedule: Q01DX005 (ip), vehicle: saline 98 % of control | dose: 100.0 mg/kg/injection, schedule: Q01DX005 (ip), vehicle: saline 112 % of control | dose: 200.0 mg/kg/injection, schedule: Q01DX005 (ip), vehicle: saline 102 % of control | dose: 400.0 mg/kg/injection, schedule: Q01DX005 (ip), vehicle: saline 100 % of control

Nc1ncnn1C(=O)OCc1ccccc1
inactive: [7] 98 % of control | [1] 89 % of control | [8] 112 % of control | [2] 96 % of control | [9] 93 % of control | [3] 100 % of control

S=C(NCc1ccccc1)NC1CCCCC1
inactive: dose: 25.0 mg/kg/injection, schedule: Q01DX009 (ip), vehicle: saline 97 % of control | dose: 50.0 mg/kg/injection, schedule: Q01DX009 (ip), vehicle: saline 100 % of control | dose: 50.0 mg/kg/injection, schedule: Q04DX003 (ip), vehicle: saline 92 % of control | [1] 96 % of control | [13] 102 % of control

COc1ccc(COc2ccc(Cl)cc2)cc1OC
inactive: [10] 109 % of control | [11] 98 % of control | [12] 101 % of control

O=C1c2cc([N+](=O)[O-])ccc2-c2cc(Br)cc(Br)c21
inactive: [5] 93 % of control | [6] 108 % of control | [4] 98 % of control

CCOC(=O)C(c1ccccc1)C(NC(C)=O)(C(=O)OCC)C(=O)OCC (stereo not given)
inactive: dose: 100.0 mg/kg/injection, schedule: Q04DX002 (ip), vehicle: Klucel (hydroxypropylcellulose) (HPC) 114 % of control | dose: 200.0 mg/kg/injection, schedule: Q04DX002 (ip), vehicle: Klucel (hydroxypropylcellulose) (HPC) 104 % of control | dose: 400.0 mg/kg/injection, schedule: Q04DX002 (ip), vehicle: Klucel (hydroxypropylcellulose) (HPC) 93 % of control

CC(N)C(=O)Nc1ccccc1 (stereo not given)
inactive: dose: 100.0 mg/kg/injection, schedule: Q01DX009 (ip), vehicle: water 94 % of control | dose: 100.0 mg/kg/injection, schedule: Q04DX003 (ip), vehicle: water 97 % of control | dose: 200.0 mg/kg/injection, schedule: Q01DX009 (ip), vehicle: water 100 % of control | dose: 200.0 mg/kg/injection, schedule: Q04DX003 (ip), vehicle: water 103 % of control | dose: 400.0 mg/kg/injection, schedule: Q01DX009 (ip), vehicle: water 100 % of control | dose: 400.0 mg/kg/injection, schedule: Q04DX003 (ip), vehicle: water 97 % of control

O=C(NCCCl)NC1CS(=O)(=O)CS(=O)(=O)C1
inactive: dose: 75.0 mg/kg/injection, schedule: Q01DX001 (ip), vehicle: other 104 % of control

ClCc1ccccn1
inactive: [1] 92 % of control | [13] 98 % of control | [2] 95 % of control | dose: 200.0 mg/kg/injection, schedule: Q04DX003 (ip), vehicle: saline 101 % of control | [3] 89 % of control | dose: 400.0 mg/kg/injection, schedule: Q04DX003 (ip), vehicle: saline 94 % of control

CCCOC(=O)c1ccc([N+](=O)[O-])o1
inactive: [14] 95 % of control | [15] 92 % of control

N/N=C(\N)c1cn(C2OC(CO)C(O)C2O)c2ncnc(N)c12 (stereo not given)
inactive: dose: 5.0 mg/kg/injection, schedule: Q01DX001 (ip), vehicle: carboxymethylcellulose (CMC) 109 % of control

Nc1cccc2c1C(=O)C=CC2=O
inactive: dose: 0.78 mg/kg/injection, schedule: Q01DX009 (ip), vehicle: saline 103 % of control | dose: 1.56 mg/kg/injection, schedule: Q01DX009 (ip), vehicle: saline 101 % of control | dose: 1.56 mg/kg/injection, schedule: Q04DX003 (ip), vehicle: saline 95 % of control | dose: 3.12 mg/kg/injection, schedule: Q01DX009 (ip), vehicle: saline 98 % of control | dose: 3.12 mg/kg/injection, schedule: Q04DX003 (ip), vehicle: saline 103 % of control | dose: 4.6 mg/kg/injection, schedule: Q01DX009 (ip), vehicle: saline 104 % of control

CC(=O)OC1COC(Cl)C(OC(C)=O)C1OC(C)=O (stereo not given)
inactive: dose: 100.0 mg/kg/injection, schedule: Q01DX001 (sc), vehicle: olive oil, sesame oil, peanut oil 103 % of control | dose: 200.0 mg/kg/injection, schedule: Q01DX001 (sc), vehicle: olive oil, sesame oil, peanut oil 97 % of control | dose: 400.0 mg/kg/injection, schedule: Q01DX001 (sc), vehicle: olive oil, sesame oil, peanut oil 97 % of control

CCCCCCCCCCCCCCCCCC(=O)C(C)(C)C
inactive: dose: 25.0 mg/kg/injection, schedule: Q01DX001 (ip), vehicle: Klucel (hydroxypropylcellulose) (HPC) 92 % of control | dose: 50.0 mg/kg/injection, schedule: Q01DX001 (ip), vehicle: Klucel (hydroxypropylcellulose) (HPC) 98 % of control | [14] 98 % of control | [15] 98 % of control | dose: 400.0 mg/kg/injection, schedule: Q01DX001 (ip), vehicle: Klucel (hydroxypropylcellulose) (HPC) 95 % of control

O=C(NCCCC1C2CCC(C2)C1CNC(=O)Nc1cccc(Cl)c1)Nc1cccc(Cl)c1 (stereo not given)
inactive: [10] 91 % of control | [11] 92 % of control | [12] 87 % of control
